# Measured values as given in the supplement of paper PMC10307832.
# Legend:
# Experiment in all cases: relative viability (nuclei count vs DMSO), 5 days (fraction); higher = more cells survive
# [1] = compound: C1=CC2=NC=CN=C2C=C1/C=C/3\C(=O)NC(=O)S3 + COc1cccc2cc(-c3nc([C@H]4CC[C@H](C(=O)O)CC4)n4ncnc(N)c34)[nH]c12 [OSI-027] (partner 0.5 µM)
# Outline: (§1)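 One day after seeding in 1536-well plates, lung cancer cell lines were dosed by pin tool. Dosing was either single-drug or a fixed anchor-drug dose plus five library-drug doses (not always all listed) in √10 steps. After 5 days, nuclei were stained in one fix-and-stain step and counted on 4× images, and relative viability is the nuclei count of treated wells over that of vehicle wells, given as the median of duplicate plates.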
# [2] = compound: C1=CC2=NC=CN=C2C=C1/C=C/3\C(=O)NC(=O)S3 + N=C(N)NC(=N)NCCc1ccccc1 [Phenformin] (partner 250 µM)
# Outline: as §1
# [3] = compound: C1=CC2=NC=CN=C2C=C1/C=C/3\C(=O)NC(=O)S3 + C[C@]1(O)C[C@@H](c2nc(-c3ccc4ccc(-c5ccccc5)nc4c3)c3c(N)nccn32)C1 [Linsitinib] (partner 1 µM)
# Outline: as §1
# BGJ398 + Luminespib = compound: CCN1CCN(c2ccc(Nc3cc(N(C)C(=O)Nc4c(Cl)c(OC)cc(OC)c4Cl)ncn3)cc2)CC1 [BGJ398] + CCNC(=O)c1noc(-c2cc(C(C)C)c(O)cc2O)c1-c1ccc(CN2CCOCC2)cc1 [Luminespib] (partner 0.01 µM)
# Outline: as §1
Cell Line,relative viability ([1]; first compound 0.02 µM),relative viability ([1]; first compound 0.06325 µM),relative viability ([1]; first compound 0.2 µM),relative viability ([1]; first compound 0.6325 µM),relative viability ([1]; first compound 2 µM),relative viability ([2]; first compound 0.02 µM),relative viability ([2]; first compound 0.06325 µM),relative viability ([2]; first compound 0.2 µM),relative viability ([2]; first compound 0.6325 µM),relative viability ([2]; first compound 2 µM),relative viability ([3]; first compound 0.02 µM),relative viability ([3]; first compound 0.06325 µM),relative viability ([3]; first compound 0.2 µM),relative viability ([3]; first compound 0.6325 µM),relative viability ([3]; first compound 2 µM),relative viability (BGJ398 + Luminespib; first compound 0.01 µM),relative viability (BGJ398 + Luminespib; first compound 0.03162 µM),relative viability (BGJ398 + Luminespib; first compound 0.1 µM),relative viability (BGJ398 + Luminespib; first compound 0.3162 µM),relative viability (BGJ398 + Luminespib; first compound 1 µM)
HCC-44,0.775,0.445,0.656,0.463,0.225,0.314,0.212,0.202,0.153,0.122,0.691,0.628,0.675,0.607,0.674,0.974,1.11,1.32,1.09,0.942
HCC-827,0.771,0.725,0.765,0.741,0.779,0.481,0.372,0.41,0.427,0.455,0.944,0.928,1,0.935,0.884,0.432,–,0.405,0.268,0.736
NCI-H1623,0.411,0.415,0.419,0.421,0.253,0.553,0.675,0.622,0.608,0.494,–,–,–,–,–,0.544,0.434,0.501,0.472,0.483
NCI-H2347,0.505,0.306,0.412,0.5,0.276,0.352,0.322,0.422,0.394,0.375,1.01,0.957,0.957,0.993,0.92,0.396,0.666,0.746,0.471,0.453
PC-14,0.771,0.67,0.815,0.804,0.692,0.718,0.719,0.641,0.649,0.452,0.88,0.952,0.994,1.02,0.993,0.151,–,0.119,–,0.134
NCI-H1651,0.711,0.723,0.794,0.658,0.527,0.314,0.321,0.325,0.298,0.285,0.894,1.03,0.989,0.916,0.939,0.989,0.811,0.9,0.949,0.773
HARA,0.482,0.396,0.586,0.43,0.195,0.451,0.384,0.395,0.428,0.422,0.96,0.829,1.08,0.942,0.975,0.652,0.862,0.682,0.374,0.679
NCI-H1650,0.688,0.605,0.783,0.677,0.493,0.442,0.392,0.503,0.432,0.385,–,–,–,–,–,0.195,–,0.196,0.205,0.197
NCI-H1395,0.667,0.64,0.738,0.588,0.583,0.449,0.449,0.47,0.416,0.483,1.37,1.28,1.25,0.939,1.14,0.63,0.661,0.665,0.557,0.415
